Each structure is given as a SMILES string.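 Values below derive from 48-hour exposures of cells grown in 96-well plates, with endpoints linearly interpolated between the two concentrations bracketing the appropriate inhibition level. GI50: concentration for 50% inhibition of growth. TGI: total growth inhibition.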

The results in this text go back to PubChem BioAssay (NCI).

Among the test systems are ACHN renal; OVCAR-5 ovarian; MALME-3M melanoma; COLO 205 colon; SNB-75 CNS; SW-620 colon; 786-0 renal.
Holding throughout (experiment): growth of human tumour cells (NCI), 48 h

Take `COC1=CC(C2c3cc4c(cc3[C@@H](Nc3ccc(F)cc3)C3COC(=O)[C@H]23)OCO4)=CC(=O)C1=O` (some centres not stated): the TGI with ACHN renal is 23.4 µM; with OVCAR-5 ovarian it was 98.2 µM; in the experiment with MALME-3M melanoma, 36.6 µM; with COLO 205 colon, 41.5 µM; in the experiment with SNB-75 CNS, > 45.1 µM; with SW-620 colon, > 50.1 µM. The compound also showed a TGI in the experiment with 786-0 renal of 11.4 µM.
As for `Cc1c(C(=O)O)n(C)c(=O)n(C)c1=O`, the TGI in the experiment with ACHN renal, with OVCAR-5 ovarian, in the experiment on MALME-3M melanoma, with COLO 205 colon, in the experiment on SNB-75 CNS and in the experiment on SW-620 colon was > 100 µM in each case. The TGI in the experiment with 786-0 renal is > 100 µM.
For the compound `COc1ccccc1NC(=O)C1=C(C)NC(C)=C(C(=O)Nc2ccccc2OC)C1/C=C/c1ccccc1`, the TGI with ACHN renal is > 100 µM; in the experiment on OVCAR-5 ovarian, > 100 µM; in the experiment with MALME-3M melanoma it was > 100 µM; in the experiment on COLO 205 colon it was > 100 µM; with SNB-75 CNS, 79.7 µM; in the experiment on SW-620 colon it was > 100 µM. The TGI with 786-0 renal is > 100 µM.
As for `Cc1cccc(C(=O)O)c1C(=O)c1cccc2ccccc12`, the TGI in the experiment on ACHN renal, with OVCAR-5 ovarian, with MALME-3M melanoma, with COLO 205 colon, in the experiment with SNB-75 CNS and with SW-620 colon was > 100 µM throughout. Also, in the experiment with 786-0 renal, the TGI is > 100 µM.
With `Cc1ccc(NC(=O)C(=O)CC(=O)c2c(C)n([O-])c3ccccc3[n+]2=O)cc1C`, the TGI with ACHN renal, in the experiment on OVCAR-5 ovarian, with MALME-3M melanoma, with COLO 205 colon, with SNB-75 CNS and in the experiment with SW-620 colon was > 100 µM each time. For the same compound, the TGI in the experiment with 786-0 renal was > 100 µM.
`CCCCCCCC1(c2ccc(N)cc2)CCC(=O)NC1=O` (configuration not stated): the TGI with ACHN renal was 67.3 µM; with OVCAR-5 ovarian, > 100 µM; with MALME-3M melanoma, > 100 µM; in the experiment on COLO 205 colon, 52.5 µM; with SNB-75 CNS, 96.2 µM; in the experiment on SW-620 colon, > 100 µM. Further, in the experiment with 786-0 renal, the TGI was > 100 µM.
In the case of `CC(C)c1cccc(C(C)C)c1N1C(=O)C(=O)C(c2nc3ccccc3o2)C(=O)C1=O`, the TGI with ACHN renal, in the experiment on OVCAR-5 ovarian, in the experiment with MALME-3M melanoma, in the experiment with COLO 205 colon, with SNB-75 CNS and with SW-620 colon was > 100 µM throughout. The same compound gave a TGI with 786-0 renal of 84.3 µM.
As to `Cc1ccc(C)c(N2C(=O)C(=O)C(c3nc4ccccc4o3)C(=O)C2=O)c1`, the TGI in the experiment on ACHN renal was > 100 µM; with MALME-3M melanoma it was > 100 µM; in the experiment with COLO 205 colon, 95.4 µM; in the experiment with SNB-75 CNS, > 100 µM; in the experiment with SW-620 colon, > 100 µM; in the experiment with 786-0 renal it was > 100 µM.
Regarding `COCCOc1cc(C)cc(/C=C(C)/C=C/C2=C(C)CCCC2(C)C)n1`, the TGI in the experiment on ACHN renal, in the experiment with OVCAR-5 ovarian, with MALME-3M melanoma, in the experiment on COLO 205 colon, in the experiment with SNB-75 CNS and in the experiment with SW-620 colon was > 100 µM each time. In addition, the TGI with 786-0 renal is > 100 µM.
For `N#Cc1ccccc1NC(=O)C(=O)C1NC(=S)NC1=O` (configuration not stated), the TGI with ACHN renal, in the experiment on OVCAR-5 ovarian, in the experiment on MALME-3M melanoma, in the experiment with COLO 205 colon, in the experiment with SNB-75 CNS and in the experiment on SW-620 colon was > 100 µM throughout. Moreover, in the experiment on 786-0 renal, the TGI was > 100 µM.
For the compound `Cc1ccc2nc(NC(=O)C(=O)C(C#N)c3ccc(Cl)cc3)sc2c1` (configuration not stated), the TGI with ACHN renal, with OVCAR-5 ovarian, in the experiment with MALME-3M melanoma, with COLO 205 colon, in the experiment on SNB-75 CNS and in the experiment on SW-620 colon was > 50 µM throughout. Besides, the TGI with 786-0 renal is > 50 µM.
As for `C/C(CN1C(=O)c2ccccc2C1=O)=N\NS(=O)(=O)c1cccc(C(=O)O)c1`, the TGI in the experiment with ACHN renal, in the experiment with OVCAR-5 ovarian, with MALME-3M melanoma, in the experiment on COLO 205 colon, in the experiment on SNB-75 CNS and with SW-620 colon was > 100 µM throughout. For the same compound, in the experiment with 786-0 renal, the TGI was > 100 µM.
In the case of `CCN(CC)CC1CCCCN1CC(=O)N1CC(C)C(=O)Nc2ccccc21` (configuration not stated), the TGI in the experiment on ACHN renal, in the experiment with OVCAR-5 ovarian, with MALME-3M melanoma, in the experiment with COLO 205 colon, with SW-620 colon and in the experiment on 786-0 renal was > 100 µM each time.
`CCCCCC(=O)Nc1nc2nc[nH]c2c(=O)[nH]1`: the TGI in the experiment on ACHN renal, in the experiment on OVCAR-5 ovarian, in the experiment on MALME-3M melanoma, in the experiment on COLO 205 colon, in the experiment on SNB-75 CNS and in the experiment on SW-620 colon was > 100 µM throughout. Also, the TGI in the experiment with 786-0 renal was > 100 µM.
Regarding `CCC[CH2][Sn]([CH2]CCC)([S]C#N)[S]C#N`, the GI50 with ACHN renal is 1.24 µM; in the experiment on OVCAR-5 ovarian it was 1.56 µM; in the experiment with MALME-3M melanoma it was 0.753 µM; in the experiment on COLO 205 colon, 1.4 µM; in the experiment on SNB-75 CNS it was 0.592 µM; in the experiment with SW-620 colon it was 0.378 µM. In the experiment with 786-0 renal, the GI50 is 1.2 µM. Moreover, the TGI in the experiment with ACHN renal is 2.48 µM; in the experiment on OVCAR-5 ovarian, 2.96 µM; in the experiment with MALME-3M melanoma it was 2.27 µM; in the experiment with COLO 205 colon it was 3.77 µM; with SNB-75 CNS, 2.08 µM; with SW-620 colon, 1.54 µM. The compound also displayed a TGI in the experiment on 786-0 renal of 2.49 µM.
Consider `COC1CC(O)C(OC(=O)c2ccccc2)C(C)O1` (configuration not stated), for which the TGI with OVCAR-5 ovarian, in the experiment with MALME-3M melanoma, with COLO 205 colon, in the experiment on SW-620 colon and in the experiment with 786-0 renal was > 100 µM throughout.
On to `N#CC(C(=O)CCCC(=O)Nc1ccc(Cl)cc1Cl)c1ccccc1` (configuration not stated), for which the TGI with ACHN renal, with OVCAR-5 ovarian, in the experiment with MALME-3M melanoma, in the experiment with COLO 205 colon, with SW-620 colon and with 786-0 renal was > 100 µM each time.
Consider `CCOC(=O)c1cc(-c2ccc(-c3cc(C(=O)OCC)c(C#N)c(N)c3C#N)cc2)c(C#N)c(N)c1C#N`, for which the TGI in the experiment on ACHN renal, with OVCAR-5 ovarian, with MALME-3M melanoma, in the experiment with COLO 205 colon, in the experiment with SW-620 colon and with 786-0 renal was > 100 µM each time.
